Data as given in US10570149B2, “Tricyclic heterocylic derivatives” (MERCK PATENT GMBH, priority 2016, dated 2020).

Assays:
[1] = tested on: phosphorylation of Chk1 (Ser 345) in HT29 colon adenocarcinoma cells; test: pCHK1 cellular assay; type: cell-based; conditions: Homo sapiens
Method in brief: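 HT29 cells plated ≥20 h, then compound (1 nM–30 μM final) with hydroxyurea (3 mM final) added together for 4 h at 37 °C. After MeOH/Triton fixation-permeabilisation, anti-pChk1 immunostaining plus nuclear stain; nuclear pChk1 imaged by confocal high content reader, reported as % positive nuclei.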

ATR/ATRIP = biological target: T1, ATR/ATRIP (Homo sapiens, UniProt Q13535); test: ATR/ATRIP kinase assay (TR-FRET, p53 phosphorylation); type: biochemical; conditions: Table 1, class symbols; read-out: ATR-ATRIP IC50
T1 construct: human ATR, full length, GenBank ID: NM_001184.3; p53: Sf21 insect cells
T1 sequence (Q13535 whole entry): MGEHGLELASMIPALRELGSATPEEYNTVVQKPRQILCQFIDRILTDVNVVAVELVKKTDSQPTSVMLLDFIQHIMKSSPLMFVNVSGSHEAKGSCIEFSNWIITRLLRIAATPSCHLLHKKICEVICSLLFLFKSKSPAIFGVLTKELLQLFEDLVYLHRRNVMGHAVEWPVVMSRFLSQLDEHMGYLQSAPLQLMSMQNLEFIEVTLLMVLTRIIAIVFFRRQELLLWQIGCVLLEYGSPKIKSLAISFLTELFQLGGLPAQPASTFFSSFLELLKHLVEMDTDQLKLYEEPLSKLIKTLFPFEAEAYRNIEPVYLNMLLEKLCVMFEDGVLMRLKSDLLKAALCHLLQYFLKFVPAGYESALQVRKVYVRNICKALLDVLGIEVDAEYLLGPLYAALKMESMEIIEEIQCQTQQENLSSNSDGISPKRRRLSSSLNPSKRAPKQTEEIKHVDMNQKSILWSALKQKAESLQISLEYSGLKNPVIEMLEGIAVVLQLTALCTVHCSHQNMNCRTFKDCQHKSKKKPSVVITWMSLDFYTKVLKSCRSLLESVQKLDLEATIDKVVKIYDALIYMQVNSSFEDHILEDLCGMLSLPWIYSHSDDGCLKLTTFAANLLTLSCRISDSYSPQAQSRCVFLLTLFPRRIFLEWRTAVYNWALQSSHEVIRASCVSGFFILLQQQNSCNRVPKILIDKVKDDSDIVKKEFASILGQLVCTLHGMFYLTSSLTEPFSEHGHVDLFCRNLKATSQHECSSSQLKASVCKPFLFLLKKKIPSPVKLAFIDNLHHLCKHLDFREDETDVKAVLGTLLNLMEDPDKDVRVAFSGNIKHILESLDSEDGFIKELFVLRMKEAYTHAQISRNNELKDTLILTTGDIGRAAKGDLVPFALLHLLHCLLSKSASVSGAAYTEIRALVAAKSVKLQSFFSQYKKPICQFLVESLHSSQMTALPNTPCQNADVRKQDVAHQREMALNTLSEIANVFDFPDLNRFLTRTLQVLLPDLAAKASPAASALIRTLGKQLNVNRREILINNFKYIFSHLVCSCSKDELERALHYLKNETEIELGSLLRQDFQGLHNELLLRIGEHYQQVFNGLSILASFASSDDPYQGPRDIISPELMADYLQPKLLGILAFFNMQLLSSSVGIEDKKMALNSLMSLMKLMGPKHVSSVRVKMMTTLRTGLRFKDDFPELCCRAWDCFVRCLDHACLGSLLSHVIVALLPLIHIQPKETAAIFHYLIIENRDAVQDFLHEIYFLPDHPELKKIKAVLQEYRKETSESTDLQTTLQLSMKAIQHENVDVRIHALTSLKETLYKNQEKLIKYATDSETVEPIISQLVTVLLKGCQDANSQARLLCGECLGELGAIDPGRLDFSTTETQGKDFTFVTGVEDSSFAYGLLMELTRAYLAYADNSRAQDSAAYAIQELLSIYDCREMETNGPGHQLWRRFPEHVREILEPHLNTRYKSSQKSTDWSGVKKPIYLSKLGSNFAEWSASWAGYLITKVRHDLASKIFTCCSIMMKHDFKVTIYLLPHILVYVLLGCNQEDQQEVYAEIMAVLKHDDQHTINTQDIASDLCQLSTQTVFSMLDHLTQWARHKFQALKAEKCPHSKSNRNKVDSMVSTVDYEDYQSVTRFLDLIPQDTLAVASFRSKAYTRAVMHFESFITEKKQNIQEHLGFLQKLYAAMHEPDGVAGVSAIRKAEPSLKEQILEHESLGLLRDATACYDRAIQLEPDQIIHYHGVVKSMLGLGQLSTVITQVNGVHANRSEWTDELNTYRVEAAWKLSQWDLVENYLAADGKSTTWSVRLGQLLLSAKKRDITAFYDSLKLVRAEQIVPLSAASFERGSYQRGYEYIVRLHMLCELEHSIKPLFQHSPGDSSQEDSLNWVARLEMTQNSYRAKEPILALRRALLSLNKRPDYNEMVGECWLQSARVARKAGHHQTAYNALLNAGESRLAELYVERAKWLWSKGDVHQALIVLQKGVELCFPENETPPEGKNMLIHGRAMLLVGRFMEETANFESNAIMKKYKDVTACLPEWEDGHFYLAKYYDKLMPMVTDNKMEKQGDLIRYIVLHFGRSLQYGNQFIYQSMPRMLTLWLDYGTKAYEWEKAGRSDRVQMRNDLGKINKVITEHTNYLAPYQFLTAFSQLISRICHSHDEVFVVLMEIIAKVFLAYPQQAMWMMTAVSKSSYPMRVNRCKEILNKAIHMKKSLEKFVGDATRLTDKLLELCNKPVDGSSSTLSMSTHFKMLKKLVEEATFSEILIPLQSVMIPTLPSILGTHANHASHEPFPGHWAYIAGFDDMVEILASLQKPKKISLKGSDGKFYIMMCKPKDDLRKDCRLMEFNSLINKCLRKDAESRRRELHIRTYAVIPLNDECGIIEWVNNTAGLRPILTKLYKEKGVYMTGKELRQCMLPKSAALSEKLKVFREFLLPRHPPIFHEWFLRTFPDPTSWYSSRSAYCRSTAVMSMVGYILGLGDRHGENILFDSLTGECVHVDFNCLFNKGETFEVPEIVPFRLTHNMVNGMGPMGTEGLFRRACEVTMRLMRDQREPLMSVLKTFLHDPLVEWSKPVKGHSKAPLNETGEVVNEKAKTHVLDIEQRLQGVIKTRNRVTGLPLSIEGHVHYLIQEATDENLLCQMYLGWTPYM
T1 sequence (Q8WXE1 whole entry partner): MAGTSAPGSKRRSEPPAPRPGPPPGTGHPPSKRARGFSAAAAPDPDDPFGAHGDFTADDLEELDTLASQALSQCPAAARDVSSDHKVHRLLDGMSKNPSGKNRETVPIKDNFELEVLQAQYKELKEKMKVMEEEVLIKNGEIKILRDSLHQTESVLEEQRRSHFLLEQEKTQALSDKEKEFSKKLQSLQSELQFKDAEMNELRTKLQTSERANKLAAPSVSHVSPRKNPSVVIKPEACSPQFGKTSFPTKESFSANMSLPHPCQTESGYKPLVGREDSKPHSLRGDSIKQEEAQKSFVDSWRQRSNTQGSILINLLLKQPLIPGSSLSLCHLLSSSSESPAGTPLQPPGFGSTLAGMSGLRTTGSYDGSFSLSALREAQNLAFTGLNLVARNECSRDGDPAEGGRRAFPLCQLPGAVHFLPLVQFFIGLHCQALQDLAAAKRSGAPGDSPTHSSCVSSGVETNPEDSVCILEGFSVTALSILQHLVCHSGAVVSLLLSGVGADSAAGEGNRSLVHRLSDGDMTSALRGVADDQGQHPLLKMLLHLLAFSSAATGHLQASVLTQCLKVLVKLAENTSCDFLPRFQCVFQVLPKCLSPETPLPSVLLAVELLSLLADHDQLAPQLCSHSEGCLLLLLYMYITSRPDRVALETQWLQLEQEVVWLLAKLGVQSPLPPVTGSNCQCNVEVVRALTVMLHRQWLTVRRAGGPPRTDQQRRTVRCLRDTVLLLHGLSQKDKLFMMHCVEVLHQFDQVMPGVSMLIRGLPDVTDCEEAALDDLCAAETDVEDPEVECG

[2] = biological target: T2, Kv11.1 (hERG) ion channel (Homo sapiens, UniProt Q12809); test: Kv11.1 (hERG) ion channel activity, whole cell patch clamp; type: cell-based; conditions: for Ki: Table 3, HEK293 hERG patch clamp
T2 construct: expressed in transfected cells; host or cells: HEK293
T2 sequence (Q12809 whole entry): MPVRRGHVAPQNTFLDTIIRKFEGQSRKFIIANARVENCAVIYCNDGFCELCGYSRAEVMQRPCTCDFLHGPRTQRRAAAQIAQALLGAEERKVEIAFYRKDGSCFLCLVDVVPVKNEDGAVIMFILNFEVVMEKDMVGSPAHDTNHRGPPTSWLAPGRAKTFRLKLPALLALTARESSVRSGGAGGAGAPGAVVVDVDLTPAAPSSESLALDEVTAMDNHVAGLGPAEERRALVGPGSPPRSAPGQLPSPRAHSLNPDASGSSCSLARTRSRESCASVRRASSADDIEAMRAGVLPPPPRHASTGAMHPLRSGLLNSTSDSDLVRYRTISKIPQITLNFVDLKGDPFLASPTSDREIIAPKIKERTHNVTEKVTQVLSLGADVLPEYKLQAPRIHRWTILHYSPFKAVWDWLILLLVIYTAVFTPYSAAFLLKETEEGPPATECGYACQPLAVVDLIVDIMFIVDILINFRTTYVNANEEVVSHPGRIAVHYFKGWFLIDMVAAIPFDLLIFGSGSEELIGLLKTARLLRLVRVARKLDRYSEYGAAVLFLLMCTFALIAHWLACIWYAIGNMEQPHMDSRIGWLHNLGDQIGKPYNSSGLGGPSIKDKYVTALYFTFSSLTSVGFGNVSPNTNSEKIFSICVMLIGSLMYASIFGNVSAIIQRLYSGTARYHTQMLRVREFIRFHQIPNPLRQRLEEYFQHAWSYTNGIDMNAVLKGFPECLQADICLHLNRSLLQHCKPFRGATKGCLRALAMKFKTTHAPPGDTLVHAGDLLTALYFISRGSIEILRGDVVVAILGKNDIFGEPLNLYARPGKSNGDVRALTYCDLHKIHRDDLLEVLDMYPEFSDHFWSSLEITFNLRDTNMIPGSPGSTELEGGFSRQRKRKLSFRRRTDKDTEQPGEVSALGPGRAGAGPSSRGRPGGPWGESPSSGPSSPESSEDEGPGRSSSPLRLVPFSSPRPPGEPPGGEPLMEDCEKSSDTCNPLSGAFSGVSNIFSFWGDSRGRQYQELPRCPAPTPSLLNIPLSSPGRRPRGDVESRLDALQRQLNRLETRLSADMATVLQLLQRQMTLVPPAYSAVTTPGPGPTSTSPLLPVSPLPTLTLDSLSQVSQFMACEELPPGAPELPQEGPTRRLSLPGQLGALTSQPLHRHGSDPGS
Protocol: Kv11.1 (hERG) Ion Channel Activity
In this assay, a potential in vitro effect of test compounds on the Kv11.1 (hERG) ion channel current is investigated which mediates the rapidly activating, delayed rectifier cardiac potassium current (IKr). The assay is performed with a stable Kv11.1 (hERG) transfected human embryonic kidney cell line (HEK293) by whole cell patch clamp technique carried out at room temperature.
The Kv11.1 (hERG) ion channel blocker quinidine is used as reference compound. The effects of the test compounds and quinidine are normalized to the corresponding vehicle control. The whole cell recordings are carried out with an automated patch clamp device Patchliner™, Nanion Technologies, Munich). Hereby the Patch Clamp measurements run on silicate-coated chips with a hole of a defined diameter. Solutions, cell suspension and compounds are applied by a Teflon-laminated pipette needle through microfluidic silicate-laminated channels. Commercial patch clamp amplifiers (EPC10, HEKA Elektronik Dr. Schulze GmbH, Germany) are used for the patch clamp recordings. HEK293 cells stably expressing the hERG gene are held at −80 mV. Steady-state inhibition of Kv11.1 (hERG) potassium current due to test/reference compound application is measured using a pulse pattern with fixed amplitudes: 51 ms/−80 mV, 500 ms/+40 mV, 500 ms/−40 mV, 200 ms/−80 mV. The hERG-specific voltage protocol is repeated at 10 s intervals. The leak current is subtracted by a P4 leak subtraction. Cells are resuspended in extracellular patch clamp solution (EC) and applied into the chip. After trapping the cell, the EC is exchanged by seal enhancer solution (SE) to improve the sealing procedure. When the whole cell configuration is attained, seal enhancer is washed out by the application of EC. The recording is started in EC for 1.5 min. Afterwards DMSO (vehicle control, 0.1% DMSO) is applied and the control current is measured for 3 min. Following control steady-state current, test compound is applied twice at the same concentration and the tail current is measured for 3.5 min each. For the determination of a concentration-relationship, the test compound is applied as a cumulative concentration-response curve and each concentration is measured for 5 min. The reference compound quinidine is treated in the same way. The effect on Kv11.1 (hERG) ion channel activity is judged from the tail current amplitude monitored at −40 mV (current of interest, COI). Results are calculated from the last recorded current traces. Changes in Kv11.1 (hERG) ion channel activity between control value, defined as 100% Kv11.1 (hERG) ion channel activity, application of test compound and application of quinidine is reported as percent change of control value of COI. An aliquot of test compound is collected for concentration verification during the recording. The sample is immediately measured by HPLC and the final compound concentration within the assay is calculated according to a calibration curve.

[3] = HT-29, Table 1, class symbols, hydroxyurea

Structure (SMILES) | IC50 [1, 3] [nM] | IC50 ([1]; HT-29, Table 3, hydroxyurea) [nM] | IC50 (ATR/ATRIP) [nM] | hERG % effect @ conc ([2]; @ 30 μM) | Ki [2] [nM] | hERG % effect @ conc ([2]; @ 10 μM)
CNc1cnc2[nH]ccc2c1-c1nc2c(c(C(C)(C)S(C)(=O)=O)n1)OC[C@@H]1COC[C@@H](C)N21 [A1, {4-[(S)-1-(1-Methanesulfonyl-1-methyl-ethyl)-5-(R)-methyl-5,6,8a,9-tetrahydro-8H-7,10-dioxa-2,4,4b-triaza-phenanthren-3-yl]-1H-pyrrolo[2,3-b]pyridin-5-yl}-methyl-amine] | < 10 | 6.2 | < 1 | (−50% @ 30 μM) | > 30000 | 
C[C@@H]1COC[C@H]2COc3c(nc(-c4c(N)cnc5[nH]ccc45)nc3C(C)(C)S(C)(=O)=O)N21 [A20, 4-[(4bR,8S)-1-(1-Methanesulfonyl-1-methyl-ethyl)-5-methyl-5,6,8a,9-tetrahydro-8H-7,10-dioxa-2,4,4b-triaza-phenanthren-3-yl]-1H-pyrrolo[2,3-b]pyridin-5-ylamine] | 10 to 100 | 36 | < 1 |  | > 10000 | (−19% effect @ 10 μM)
C[C@@H]1COC[C@H]2COc3c(nc(-c4ccnc5[nH]ccc45)nc3C(C)(C)S(C)(=O)=O)N21 [A13, (6R,8aS)-1-(1-Methanesulfonyl-1-methyl-ethyl)-5-methyl-3-(1H-pyrrolo[2,3-b]pyridin-4-yl)-5,6,8a,9-tetrahydro-8H-7,10-dioxa-2,4,4b-triaza-phenanthrene] | 10 to 100 | 20 | < 1 |  | 6500 | (−55% effect @ 10 μM)
